Biological target: T1, Glutathione S-transferase omega 1 (mGstO1) (Mus musculus, UniProt O09131)
T1 sequence (O09131 2-240): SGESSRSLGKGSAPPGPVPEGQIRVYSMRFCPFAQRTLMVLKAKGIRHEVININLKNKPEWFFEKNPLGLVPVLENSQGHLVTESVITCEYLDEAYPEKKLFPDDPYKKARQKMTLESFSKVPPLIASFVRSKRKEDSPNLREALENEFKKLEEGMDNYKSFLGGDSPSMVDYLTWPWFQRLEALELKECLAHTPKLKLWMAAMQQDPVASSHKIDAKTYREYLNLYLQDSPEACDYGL
Type: biochemical

Structure (SMILES): N[C@@H](CCC(=O)N[C@@H](CSCC(=O)c1ccc([N+](=O)[O-])cc1)C(=O)NCC(=O)O)C(=O)O [4-NPG, 4-nitrophenacyl glutathione]
- spectrophotometric assay at 305 nm of 4-NPG reduction to 4-nitroacetophenone by: 10 U/mg

From PMC10471458 (BMB Reports, 2023)
